From the supplement of paper PMC10307832

Tests used:
Assay in all cases: relative viability (nuclei count vs DMSO), 5 days (fraction); higher = more cells survive
LXF-289 = test system: LXF-289
Summary of the method: (§1)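 Lung cancer cell lines in 1536-well plates got either a single drug or a fixed anchor-drug dose together with five library-drug doses (not always all listed) in √10 steps, by pin tool, on the day after seeding. Nuclei were counted after 5 days, and relative viability is the treated-to-vehicle ratio of nuclei counts. Values are medians of duplicate plates.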

NCI-H3122 = test system: NCI-H3122
Summary of the method: as §1

NCI-H838 = test system: NCI-H838
Summary of the method: as §1

NCI-H1666 = test system: NCI-H1666
Summary of the method: as §1

NCI-H2170 = test system: NCI-H2170
Summary of the method: as §1

NCI-H358 = test system: NCI-H358
Summary of the method: as §1

BEN = test system: BEN
Summary of the method: as §1

EKVX = test system: EKVX
Summary of the method: as §1

NCI-H23 = test system: NCI-H23
Summary of the method: as §1

SK-MES-1 = test system: SK-MES-1
Summary of the method: as §1

NCI-H520 = test system: NCI-H520
Summary of the method: as §1

LU99A = test system: LU99A
Summary of the method: as §1

NCI-H727 = test system: NCI-H727
Summary of the method: as §1

NCI-H322M = test system: NCI-H322M
Summary of the method: as §1

HOP-62 = test system: HOP-62
Summary of the method: as §1

HCC-827 = test system: HCC-827
Summary of the method: as §1

EPLC-272H = test system: EPLC-272H
Summary of the method: as §1

UMC-11 = test system: UMC-11
Summary of the method: as §1

NCI-H2405 = test system: NCI-H2405
Summary of the method: as §1

NCI-H1975 = test system: NCI-H1975
Summary of the method: as §1

## COCC1(CO)C(=O)C2CCN1CC2 (centres undefined) [PRIMA-1MET] + CC(=O)Nc1cccc(-n2c(=O)n(C3CC3)c(=O)c3c(Nc4ccc(I)cc4F)n(C)c(=O)c(C)c32)c1 [Trametinib] (partner 0.02 µM)
LXF-289; first compound 0.2 µM
  relative viability: 0.582
LXF-289; first compound 0.6325 µM
  relative viability: 0.591
LXF-289; first compound 2 µM
  relative viability: 0.67
LXF-289; first compound 6.325 µM
  relative viability: 0.651
LXF-289; first compound 20 µM
  relative viability: 0.659
NCI-H3122; first compound 0.2 µM
  relative viability: 0.148
NCI-H3122; first compound 0.6325 µM
  relative viability: 0.237
NCI-H3122; first compound 2 µM
  relative viability: 0.24
NCI-H3122; first compound 6.325 µM
  relative viability: 0.17
NCI-H3122; first compound 20 µM
  relative viability: 0.191
NCI-H838; first compound 0.2 µM
  relative viability: 0.55
NCI-H838; first compound 0.6325 µM
  relative viability: 0.523
NCI-H838; first compound 2 µM
  relative viability: 0.416
NCI-H838; first compound 6.325 µM
  relative viability: 0.553
NCI-H838; first compound 20 µM
  relative viability: 0.557
NCI-H1666; first compound 0.2 µM
  relative viability: 0.886
NCI-H1666; first compound 0.6325 µM
  relative viability: 0.815
NCI-H1666; first compound 2 µM
  relative viability: 0.965
NCI-H1666; first compound 6.325 µM
  relative viability: 0.759
NCI-H1666; first compound 20 µM
  relative viability: 0.877
NCI-H2170; first compound 0.2 µM
  relative viability: 0.914
NCI-H2170; first compound 0.6325 µM
  relative viability: 0.911
NCI-H2170; first compound 2 µM
  relative viability: 0.887
NCI-H2170; first compound 6.325 µM
  relative viability: 0.975
NCI-H2170; first compound 20 µM
  relative viability: 0.964
NCI-H358; first compound 0.2 µM
  relative viability: 0.137
NCI-H358; first compound 0.6325 µM
  relative viability: 0.134
NCI-H358; first compound 2 µM
  relative viability: 0.108
NCI-H358; first compound 6.325 µM
  relative viability: 0.108
NCI-H358; first compound 20 µM
  relative viability: 0.0807
BEN; first compound 0.2 µM
  relative viability: 1.12
BEN; first compound 0.6325 µM
  relative viability: 0.926
BEN; first compound 6.325 µM
  relative viability: 1.03
BEN; first compound 20 µM
  relative viability: 1.07
EKVX; first compound 0.2 µM
  relative viability: 0.344
EKVX; first compound 2 µM
  relative viability: 0.283
EKVX; first compound 6.325 µM
  relative viability: 0.233
EKVX; first compound 20 µM
  relative viability: 0.243
NCI-H23; first compound 0.2 µM
  relative viability: 0.281
NCI-H23; first compound 0.6325 µM
  relative viability: 0.37
NCI-H23; first compound 2 µM
  relative viability: 0.273
NCI-H23; first compound 6.325 µM
  relative viability: 0.328
NCI-H23; first compound 20 µM
  relative viability: 0.112
SK-MES-1; first compound 0.2 µM
  relative viability: 0.609
SK-MES-1; first compound 0.6325 µM
  relative viability: 0.538
SK-MES-1; first compound 2 µM
  relative viability: 0.549
SK-MES-1; first compound 6.325 µM
  relative viability: 0.624
SK-MES-1; first compound 20 µM
  relative viability: 0.592
NCI-H520; first compound 0.2 µM
  relative viability: 0.463
NCI-H520; first compound 2 µM
  relative viability: 0.455
NCI-H520; first compound 6.325 µM
  relative viability: 0.76
NCI-H520; first compound 20 µM
  relative viability: 0.0736
LU99A; first compound 0.2 µM
  relative viability: 0.314
LU99A; first compound 0.6325 µM
  relative viability: 0.573
LU99A; first compound 2 µM
  relative viability: 0.502
LU99A; first compound 6.325 µM
  relative viability: 0.261
LU99A; first compound 20 µM
  relative viability: 0.21
NCI-H727; first compound 0.2 µM
  relative viability: 0.423
NCI-H727; first compound 0.6325 µM
  relative viability: 0.322
NCI-H727; first compound 6.325 µM
  relative viability: 0.413
NCI-H727; first compound 20 µM
  relative viability: 0.377
NCI-H322M; first compound 0.2 µM
  relative viability: 0.484
NCI-H322M; first compound 0.6325 µM
  relative viability: 0.467
NCI-H322M; first compound 6.325 µM
  relative viability: 0.468
NCI-H322M; first compound 20 µM
  relative viability: 0.45
HOP-62; first compound 0.2 µM
  relative viability: 0.217
HOP-62; first compound 0.6325 µM
  relative viability: 0.34
HOP-62; first compound 2 µM
  relative viability: 0.334
HOP-62; first compound 6.325 µM
  relative viability: 0.344
HOP-62; first compound 20 µM
  relative viability: 0.364
HCC-827; first compound 0.2 µM
  relative viability: 0.443
HCC-827; first compound 0.6325 µM
  relative viability: 0.523
HCC-827; first compound 2 µM
  relative viability: 0.474
HCC-827; first compound 6.325 µM
  relative viability: 0.461
HCC-827; first compound 20 µM
  relative viability: 0.481
EPLC-272H; first compound 0.2 µM
  relative viability: 0.281
EPLC-272H; first compound 0.6325 µM
  relative viability: 0.303
EPLC-272H; first compound 2 µM
  relative viability: 0.272
EPLC-272H; first compound 6.325 µM
  relative viability: 0.29
EPLC-272H; first compound 20 µM
  relative viability: 0.216
UMC-11; first compound 0.2 µM
  relative viability: 0.705
UMC-11; first compound 0.6325 µM
  relative viability: 0.569
UMC-11; first compound 2 µM
  relative viability: 0.513
UMC-11; first compound 6.325 µM
  relative viability: 0.817
UMC-11; first compound 20 µM
  relative viability: 0.749
NCI-H2405; first compound 0.2 µM
  relative viability: 0.399
NCI-H2405; first compound 0.6325 µM
  relative viability: 0.598
NCI-H2405; first compound 6.325 µM
  relative viability: 0.463
NCI-H2405; first compound 20 µM
  relative viability: 0.0947
NCI-H1975; first compound 0.2 µM
  relative viability: 0.362
NCI-H1975; first compound 0.6325 µM
  relative viability: 0.232
NCI-H1975; first compound 2 µM
  relative viability: 0.277
NCI-H1975; first compound 6.325 µM
  relative viability: 0.351
NCI-H1975; first compound 20 µM
  relative viability: 0.457
